Test results taken from PubChem BioAssay AID2060890 (Molecular Pharmacology Branch, DTP, NCI, 2025).

System: LG0703-F948-PDC complex spheroid viability
Test: Anticancer human tumor LG0703-F948-PDC patient-derived lung adenocarcinoma cell line growth inhibition [RAS]
Details: for IC50: curve of first compound; for viability, T/C: stronger effect = lower value; active means viability on the fitted dose curve at most 10% of control; inactive means the rest
In short: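 Multi-cell-type spheroids: tumor cells plus HUVEC endothelial cells and mesenchymal stem cells. RAS-pathway inhibitors were combined with targeted agents, each dosed in half-log steps down from clinical Cmax, or from 10 microM when Cmax was unknown.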

[1] = second compound 0.000949 µM, first compound 0.0316 µM
[2] = second compound 0.000949 µM, first compound 0.1 µM
[3] = second compound 0.000949 µM, first compound 0.316 µM
[4] = second compound 0.000949 µM, first compound 1 µM
[5] = second compound 0.003 µM, first compound 0.0316 µM
[6] = second compound 0.003 µM, first compound 0.1 µM
[7] = second compound 0.003 µM, first compound 0.316 µM
[8] = second compound 0.003 µM, first compound 1 µM
[9] = second compound 0.00949 µM, first compound 0.0316 µM
[10] = second compound 0.00949 µM, first compound 0.1 µM
[11] = second compound 0.00949 µM, first compound 0.316 µM
[12] = second compound 0.00949 µM, first compound 1 µM
[13] = second compound 0.03 µM, first compound 0.0316 µM
[14] = second compound 0.03 µM, first compound 0.1 µM
[15] = second compound 0.03 µM, first compound 0.316 µM
[16] = second compound 0.03 µM, first compound 1 µM
[17] = second compound 0.0949 µM, first compound 0.0316 µM
[18] = second compound 0.0949 µM, first compound 0.1 µM
[19] = second compound 0.0949 µM, first compound 0.316 µM
[20] = second compound 0.0949 µM, first compound 1 µM
[21] = second compound 0.3 µM, first compound 0.0316 µM
[22] = second compound 0.3 µM, first compound 0.1 µM
[23] = second compound 0.3 µM, first compound 0.316 µM
[24] = second compound 0.3 µM, first compound 1 µM
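Further: spheroids exposed to agents for 7 days.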
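Wherever viability, T/C is given: 100% = DMSO vehicle wells.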

O=C(c1ccc(F)c(F)c1Nc1ccc(I)cc1F)N1CC(O)([C@@H]2CCCCN2)C1 + CCn1c(-c2cccnc2C(C)OC)c2c3cc(ccc31)N1CCOC(CC(NC(=O)C(C(C)C)N(C)C(=O)C3(F)CCN(C(=O)C#CC(C)(C)N(C)C)CC3)C(=O)N3CCCC(N3)C(=O)OCC(C)(C)C2)C1
87.3 nM: IC50 (second compound 0.00949 µM)
63.9 nM: IC50 (second compound 0.003 µM)
79.9 nM: IC50 (second compound 0.000949 µM)
active: viability, T/C [23] 13.1% | viability, T/C [24] 5.27%
< 3.16 nM: IC50 (second compound 0.3 µM)
65.1 nM: IC50 (second compound 0.03 µM)
inactive: viability, T/C (second compound 0.000949 µM, first compound 0.00316 µM) 93.7% | viability, T/C (second compound 0.000949 µM, first compound 0.01 µM) 93.3% | viability, T/C [1] 64.2% | viability, T/C [2] 48.2% | viability, T/C [3] 33.4% | viability, T/C [4] 28.2% | viability, T/C (second compound 0.003 µM, first compound 0.00316 µM) 97.1% | viability, T/C (second compound 0.003 µM, first compound 0.01 µM) 79.8% | viability, T/C [5] 60.5% | viability, T/C [6] 40.7% | viability, T/C [7] 38.4% | viability, T/C [8] 27.2% | viability, T/C (second compound 0.00949 µM, first compound 0.00316 µM) 87.3% | viability, T/C (second compound 0.00949 µM, first compound 0.01 µM) 88.3% | viability, T/C [9] 70% | viability, T/C [10] 46.9% | viability, T/C [11] 30.6% | viability, T/C [12] 21.6% | viability, T/C (second compound 0.03 µM, first compound 0.00316 µM) 96.2% | viability, T/C (second compound 0.03 µM, first compound 0.01 µM) 76.1% | viability, T/C [13] 60.9% | viability, T/C [14] 42.7% | viability, T/C [15] 33.1% | viability, T/C [16] 21.9% | viability, T/C (second compound 0.0949 µM, first compound 0.00316 µM) 69.4% | viability, T/C (second compound 0.0949 µM, first compound 0.01 µM) 61% | viability, T/C [17] 44.2% | viability, T/C [18] 33.5% | viability, T/C [19] 20.9% | viability, T/C [20] 12.4% | viability, T/C (second compound 0.3 µM, first compound 0.00316 µM) 41.6% | viability, T/C (second compound 0.3 µM, first compound 0.01 µM) 35.4% | viability, T/C [21] 24% | viability, T/C [22] 13.1%
22.7 nM: IC50 (second compound 0.0949 µM)

CC(Nc1ccc2c(c1)OCCn1cc(N3C(=O)OCC3C(F)F)nc1-2)C(N)=O (stereo unspecified) + CCn1c(-c2cccnc2C(C)OC)c2c3cc(ccc31)N1CCOC(CC(NC(=O)C(C(C)C)N(C)C(=O)C3(F)CCN(C(=O)C#CC(C)(C)N(C)C)CC3)C(=O)N3CCCC(N3)C(=O)OCC(C)(C)C2)C1
< 31.6 nM: IC50 (second compound 0.3 µM)
2140 nM: IC50 (second compound 0.00949 µM)
388 nM: IC50 (second compound 0.0949 µM)
1210 nM: IC50 (second compound 0.03 µM)
2580 nM: IC50 (second compound 0.000949 µM)
inactive: viability, T/C [1] 101% | viability, T/C [2] 82.3% | viability, T/C [3] 89.8% | viability, T/C [4] 63.6% | viability, T/C (second compound 0.000949 µM, first compound 3.16 µM) 46.5% | viability, T/C (second compound 0.000949 µM, first compound 10 µM) 24.1% | viability, T/C [5] 102% | viability, T/C [6] 86.6% | viability, T/C [7] 72.8% | viability, T/C [8] 61.8% | viability, T/C (second compound 0.003 µM, first compound 3.16 µM) 45.4% | viability, T/C (second compound 0.003 µM, first compound 10 µM) 32.6% | viability, T/C [9] 102% | viability, T/C [10] 83.2% | viability, T/C [11] 77.8% | viability, T/C [12] 54.6% | viability, T/C (second compound 0.00949 µM, first compound 3.16 µM) 52.7% | viability, T/C (second compound 0.00949 µM, first compound 10 µM) 25.4% | viability, T/C [13] 100% | viability, T/C [14] 81.7% | viability, T/C [15] 60.8% | viability, T/C [16] 56.5% | viability, T/C (second compound 0.03 µM, first compound 3.16 µM) 41.5% | viability, T/C (second compound 0.03 µM, first compound 10 µM) 23.3% | viability, T/C [17] 74.1% | viability, T/C [18] 64.8% | viability, T/C [19] 54.3% | viability, T/C [20] 35.2% | viability, T/C (second compound 0.0949 µM, first compound 3.16 µM) 31.7% | viability, T/C (second compound 0.0949 µM, first compound 10 µM) 19.9% | viability, T/C [21] 41.6% | viability, T/C [22] 32.1% | viability, T/C [23] 24.8% | viability, T/C [24] 18.8% | viability, T/C (second compound 0.3 µM, first compound 3.16 µM) 15.4% | viability, T/C (second compound 0.3 µM, first compound 10 µM) 10.1%
2260 nM: IC50 (second compound 0.003 µM)

CC(Nc1ccc2c(c1)OCCn1cc(N3C(=O)OCC3C(F)F)nc1-2)C(N)=O (stereo unspecified)
inactive: viability, T/C (compound 0.0316 µM) 96.2% [middle of 4 runs] | viability, T/C (compound 0.1 µM) 88.9% [middle of 4 runs] | viability, T/C (compound 1 µM) 56.3% [middle of 4 runs] | viability, T/C (compound 3.16 µM) 45% [middle of 4 runs] | viability, T/C (compound 10 µM) 27.8% [middle of 4 runs]

CCc1c2c(nc3ccc(O)cc13)-c1cc3c(c(=O)n1C2)COC(=O)[C@]3(O)CC + C#Cc1c(F)ccc2cc(O)cc(-c3ncc4c(N5CC6CCC(C5)N6)nc(OCC56CCCN5CC(F)C6)nc4c3F)c12
47.6 nM: IC50 (second compound 0.316 µM)
38.2 nM: IC50 (second compound 0.0316 µM)
inactive: viability, T/C (second compound 0.0316 µM, first compound 0.000949 µM) 98.4% | viability, T/C (second compound 0.0316 µM, first compound 0.003 µM) 90.5% | viability, T/C (second compound 0.0316 µM, first compound 0.00949 µM) 72.3% | viability, T/C (second compound 0.0316 µM, first compound 0.03 µM) 48.3% | viability, T/C (second compound 0.0316 µM, first compound 0.0949 µM) 41.7% | viability, T/C (second compound 0.0316 µM, first compound 0.3 µM) 19.7% | viability, T/C (second compound 0.1 µM, first compound 0.000949 µM) 92.4% | viability, T/C (second compound 0.1 µM, first compound 0.003 µM) 91.1% | viability, T/C (second compound 0.1 µM, first compound 0.00949 µM) 77.6% | viability, T/C (second compound 0.1 µM, first compound 0.03 µM) 49.8% | viability, T/C (second compound 0.1 µM, first compound 0.0949 µM) 36.4% | viability, T/C (second compound 0.1 µM, first compound 0.3 µM) 20.1% | viability, T/C (second compound 0.316 µM, first compound 0.000949 µM) 85.3% | viability, T/C (second compound 0.316 µM, first compound 0.003 µM) 77.7% | viability, T/C (second compound 0.316 µM, first compound 0.00949 µM) 81.5% | viability, T/C (second compound 0.316 µM, first compound 0.03 µM) 51.7% | viability, T/C (second compound 0.316 µM, first compound 0.0949 µM) 41.4% | viability, T/C (second compound 0.316 µM, first compound 0.3 µM) 20.2% | viability, T/C (second compound 1 µM, first compound 0.000949 µM) 65.5% | viability, T/C (second compound 1 µM, first compound 0.003 µM) 61.7% | viability, T/C (second compound 1 µM, first compound 0.00949 µM) 61.7% | viability, T/C (second compound 1 µM, first compound 0.03 µM) 50.9% | viability, T/C (second compound 1 µM, first compound 0.0949 µM) 38.4% | viability, T/C (second compound 1 µM, first compound 0.3 µM) 25.3% | viability, T/C (second compound 3.16 µM, first compound 0.000949 µM) 58.5% | viability, T/C (second compound 3.16 µM, first compound 0.003 µM) 60.3% | viability, T/C (second compound 3.16 µM, first compound 0.00949 µM) 50.3% | viability, T/C (second compound 3.16 µM, first compound 0.03 µM) 52.7% | viability, T/C (second compound 3.16 µM, first compound 0.0949 µM) 30.4% | viability, T/C (second compound 3.16 µM, first compound 0.3 µM) 17% | viability, T/C (second compound 10 µM, first compound 0.000949 µM) 41% | viability, T/C (second compound 10 µM, first compound 0.003 µM) 49.4% | viability, T/C (second compound 10 µM, first compound 0.00949 µM) 46.9% | viability, T/C (second compound 10 µM, first compound 0.03 µM) 33.9% | viability, T/C (second compound 10 µM, first compound 0.0949 µM) 30.4% | viability, T/C (second compound 10 µM, first compound 0.3 µM) 15.7%
35.9 nM: IC50 (second compound 0.1 µM)
32.2 nM: IC50 (second compound 3.16 µM)
< 0.949 nM: IC50 (second compound 10 µM)
34.9 nM: IC50 (second compound 1 µM)
